As to `Cn1cc(C(=O)Nc2ccccc2-c2ccc(Br)cc2)c(C(F)F)c1` [Compound 1.2, 1-methyl-4-difluoromethyl-1H-pyrrole-3-carboxylic acid (4′-bromobiphenyl-2-yl) amide], the melting point is 166 to 167 °C.

In general, melting point refers to the temperature, or range, at which the solid turns liquid.

These data come from patent US20040082477A1, “Pyrrolecarboxamides for the use as fungicdes” (priority 2001, published 2004).
